Results as given in ChEMBL document CHEMBL1201862, “PubChem BioAssay data set” (2004).
The source made the active and inactive calls.

Key:
BJ [1] = test: cytotoxicity toward BJ-TERT-LT-ST fibroblasts, dose response, cell-based, RAS-independent, luminescence (AID 1935); format: functional; conditions: Homo sapiens;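 note: BJ fibroblasts immortalized with TERT plus LT and ST oncogenes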
[2] = cytotoxicity toward DRD oncogenic fibroblasts, dose response, cell-based, non-viral oncogenic, luminescence (AID 1934); format: functional; conditions: Homo sapiens
BJ [3] = test: cells; format: functional, cell-based; conditions: Homo sapiens
BJ [4] = test: cytotoxicity toward BJ-TERT fibroblasts, dose response, cell-based, RAS-independent, luminescence (AID 1933); format: functional; conditions: Homo sapiens
Ion channel NompC = Ion channel NompC (Danio rerio, UniProt Q7T1G6); test: Fluorescence counterscreen assay for TRPML3 agonists: dose response cell-based high-throughput screening assay to identify agonists of the transient receptor potential channel N1 (TRPN1). [Related pubchem assays: 1526, 1424, 1448 ]; format: functional
Chain of Ion channel NompC (Q7T1G6 whole entry): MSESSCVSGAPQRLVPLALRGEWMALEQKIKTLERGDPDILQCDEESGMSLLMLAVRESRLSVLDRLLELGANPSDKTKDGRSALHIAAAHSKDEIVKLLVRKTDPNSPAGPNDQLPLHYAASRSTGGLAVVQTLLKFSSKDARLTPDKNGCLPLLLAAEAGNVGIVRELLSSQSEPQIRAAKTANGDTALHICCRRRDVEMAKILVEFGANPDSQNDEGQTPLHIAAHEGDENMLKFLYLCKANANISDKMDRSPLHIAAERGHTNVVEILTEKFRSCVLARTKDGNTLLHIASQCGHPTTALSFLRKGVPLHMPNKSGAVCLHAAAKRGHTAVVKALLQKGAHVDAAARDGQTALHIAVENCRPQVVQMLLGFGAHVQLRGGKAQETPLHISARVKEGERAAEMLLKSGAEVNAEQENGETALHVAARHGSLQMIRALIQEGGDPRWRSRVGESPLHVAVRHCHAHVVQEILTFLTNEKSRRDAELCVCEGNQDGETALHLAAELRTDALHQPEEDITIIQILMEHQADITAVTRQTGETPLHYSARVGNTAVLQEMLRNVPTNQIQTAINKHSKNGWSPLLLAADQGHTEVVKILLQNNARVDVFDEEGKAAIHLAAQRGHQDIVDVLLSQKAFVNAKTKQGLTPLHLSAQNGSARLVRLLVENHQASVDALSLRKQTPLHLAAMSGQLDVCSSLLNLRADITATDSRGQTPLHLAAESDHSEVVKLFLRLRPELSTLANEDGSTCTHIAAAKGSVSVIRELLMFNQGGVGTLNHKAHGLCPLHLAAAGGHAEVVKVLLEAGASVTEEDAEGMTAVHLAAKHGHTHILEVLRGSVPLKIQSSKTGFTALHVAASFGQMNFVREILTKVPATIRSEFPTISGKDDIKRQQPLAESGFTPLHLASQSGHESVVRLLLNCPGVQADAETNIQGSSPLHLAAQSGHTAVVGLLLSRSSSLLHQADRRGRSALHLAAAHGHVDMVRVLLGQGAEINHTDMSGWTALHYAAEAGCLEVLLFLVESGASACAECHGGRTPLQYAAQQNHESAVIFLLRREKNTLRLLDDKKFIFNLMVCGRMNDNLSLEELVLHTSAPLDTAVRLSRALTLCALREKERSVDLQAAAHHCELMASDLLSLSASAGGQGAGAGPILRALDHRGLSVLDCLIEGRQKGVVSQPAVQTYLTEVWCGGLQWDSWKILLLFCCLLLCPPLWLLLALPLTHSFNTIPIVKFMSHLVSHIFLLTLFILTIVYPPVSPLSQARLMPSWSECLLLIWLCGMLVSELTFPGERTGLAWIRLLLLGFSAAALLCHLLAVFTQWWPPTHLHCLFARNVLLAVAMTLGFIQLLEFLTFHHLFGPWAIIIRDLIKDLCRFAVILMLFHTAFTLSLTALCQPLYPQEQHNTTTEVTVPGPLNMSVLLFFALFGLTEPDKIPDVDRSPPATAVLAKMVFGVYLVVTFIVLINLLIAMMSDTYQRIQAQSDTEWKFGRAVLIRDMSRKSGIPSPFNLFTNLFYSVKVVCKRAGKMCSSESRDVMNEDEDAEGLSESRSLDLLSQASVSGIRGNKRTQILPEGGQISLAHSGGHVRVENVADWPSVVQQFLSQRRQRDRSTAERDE

Mucolipin-3 = biological target: T1, Mucolipin-3 (Homo sapiens, UniProt Q8TDD5); test: Dose response cell-based high-throughput screening assay for agonists of the transient receptor potential channel ML3 (TRPML3). [Related pubchem assays: 1526, 1424, 1448 ]; format: functional
T1 sequence (Q8TDD5 whole entry): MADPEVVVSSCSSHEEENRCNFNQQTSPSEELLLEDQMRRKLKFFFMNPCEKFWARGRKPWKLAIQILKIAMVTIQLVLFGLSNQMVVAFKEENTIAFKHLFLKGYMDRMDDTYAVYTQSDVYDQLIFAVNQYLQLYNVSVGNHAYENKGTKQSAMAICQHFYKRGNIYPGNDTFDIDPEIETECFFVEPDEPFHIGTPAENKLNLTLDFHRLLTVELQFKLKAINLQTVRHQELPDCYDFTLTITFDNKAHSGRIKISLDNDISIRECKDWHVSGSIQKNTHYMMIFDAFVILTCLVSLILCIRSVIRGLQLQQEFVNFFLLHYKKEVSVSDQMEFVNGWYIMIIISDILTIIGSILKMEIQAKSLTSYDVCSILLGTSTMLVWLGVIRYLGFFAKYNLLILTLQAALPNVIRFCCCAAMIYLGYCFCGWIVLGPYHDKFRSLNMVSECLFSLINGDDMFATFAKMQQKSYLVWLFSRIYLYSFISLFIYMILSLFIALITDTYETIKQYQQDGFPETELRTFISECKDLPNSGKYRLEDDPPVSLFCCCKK

INS1 = test: beta cell apoptosis inhibitors, cytokine rescue, dose response, luminescence, retest (AID 449756); format: functional, cell-based; conditions: Rattus norvegicus;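 note: cell death triggered by IL-1 beta plus TNF-alpha plus IFN-gamma mixture; protective hits raise ATP signal compared with cytokine alone wells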
Cytochrome P450 3A4 [5] = biological target: T2, Cytochrome P450 3A4 (Homo sapiens, UniProt P08684)
T2 sequence (P08684 whole entry): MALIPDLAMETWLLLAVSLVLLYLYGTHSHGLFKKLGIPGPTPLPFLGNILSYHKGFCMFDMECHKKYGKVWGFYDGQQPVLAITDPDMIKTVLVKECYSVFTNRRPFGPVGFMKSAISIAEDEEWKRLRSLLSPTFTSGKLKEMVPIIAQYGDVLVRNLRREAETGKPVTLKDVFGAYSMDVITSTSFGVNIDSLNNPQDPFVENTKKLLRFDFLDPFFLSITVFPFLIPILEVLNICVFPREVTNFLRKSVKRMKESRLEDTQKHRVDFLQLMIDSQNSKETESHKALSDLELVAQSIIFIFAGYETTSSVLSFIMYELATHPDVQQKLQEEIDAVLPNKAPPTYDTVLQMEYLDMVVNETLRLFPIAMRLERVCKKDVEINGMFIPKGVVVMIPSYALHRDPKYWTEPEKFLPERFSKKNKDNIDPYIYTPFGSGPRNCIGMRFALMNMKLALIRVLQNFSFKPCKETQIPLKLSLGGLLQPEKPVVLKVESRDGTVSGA

[6] = biological target: Voltage-dependent T-type calcium channel subunit alpha-1H (Homo sapiens, UniProt O95180); format: functional;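 note: channel activity triggered by adding a high calcium stimulation buffer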
Chain of Voltage-dependent T-type calcium channel subunit alpha-1H (O95180 whole entry): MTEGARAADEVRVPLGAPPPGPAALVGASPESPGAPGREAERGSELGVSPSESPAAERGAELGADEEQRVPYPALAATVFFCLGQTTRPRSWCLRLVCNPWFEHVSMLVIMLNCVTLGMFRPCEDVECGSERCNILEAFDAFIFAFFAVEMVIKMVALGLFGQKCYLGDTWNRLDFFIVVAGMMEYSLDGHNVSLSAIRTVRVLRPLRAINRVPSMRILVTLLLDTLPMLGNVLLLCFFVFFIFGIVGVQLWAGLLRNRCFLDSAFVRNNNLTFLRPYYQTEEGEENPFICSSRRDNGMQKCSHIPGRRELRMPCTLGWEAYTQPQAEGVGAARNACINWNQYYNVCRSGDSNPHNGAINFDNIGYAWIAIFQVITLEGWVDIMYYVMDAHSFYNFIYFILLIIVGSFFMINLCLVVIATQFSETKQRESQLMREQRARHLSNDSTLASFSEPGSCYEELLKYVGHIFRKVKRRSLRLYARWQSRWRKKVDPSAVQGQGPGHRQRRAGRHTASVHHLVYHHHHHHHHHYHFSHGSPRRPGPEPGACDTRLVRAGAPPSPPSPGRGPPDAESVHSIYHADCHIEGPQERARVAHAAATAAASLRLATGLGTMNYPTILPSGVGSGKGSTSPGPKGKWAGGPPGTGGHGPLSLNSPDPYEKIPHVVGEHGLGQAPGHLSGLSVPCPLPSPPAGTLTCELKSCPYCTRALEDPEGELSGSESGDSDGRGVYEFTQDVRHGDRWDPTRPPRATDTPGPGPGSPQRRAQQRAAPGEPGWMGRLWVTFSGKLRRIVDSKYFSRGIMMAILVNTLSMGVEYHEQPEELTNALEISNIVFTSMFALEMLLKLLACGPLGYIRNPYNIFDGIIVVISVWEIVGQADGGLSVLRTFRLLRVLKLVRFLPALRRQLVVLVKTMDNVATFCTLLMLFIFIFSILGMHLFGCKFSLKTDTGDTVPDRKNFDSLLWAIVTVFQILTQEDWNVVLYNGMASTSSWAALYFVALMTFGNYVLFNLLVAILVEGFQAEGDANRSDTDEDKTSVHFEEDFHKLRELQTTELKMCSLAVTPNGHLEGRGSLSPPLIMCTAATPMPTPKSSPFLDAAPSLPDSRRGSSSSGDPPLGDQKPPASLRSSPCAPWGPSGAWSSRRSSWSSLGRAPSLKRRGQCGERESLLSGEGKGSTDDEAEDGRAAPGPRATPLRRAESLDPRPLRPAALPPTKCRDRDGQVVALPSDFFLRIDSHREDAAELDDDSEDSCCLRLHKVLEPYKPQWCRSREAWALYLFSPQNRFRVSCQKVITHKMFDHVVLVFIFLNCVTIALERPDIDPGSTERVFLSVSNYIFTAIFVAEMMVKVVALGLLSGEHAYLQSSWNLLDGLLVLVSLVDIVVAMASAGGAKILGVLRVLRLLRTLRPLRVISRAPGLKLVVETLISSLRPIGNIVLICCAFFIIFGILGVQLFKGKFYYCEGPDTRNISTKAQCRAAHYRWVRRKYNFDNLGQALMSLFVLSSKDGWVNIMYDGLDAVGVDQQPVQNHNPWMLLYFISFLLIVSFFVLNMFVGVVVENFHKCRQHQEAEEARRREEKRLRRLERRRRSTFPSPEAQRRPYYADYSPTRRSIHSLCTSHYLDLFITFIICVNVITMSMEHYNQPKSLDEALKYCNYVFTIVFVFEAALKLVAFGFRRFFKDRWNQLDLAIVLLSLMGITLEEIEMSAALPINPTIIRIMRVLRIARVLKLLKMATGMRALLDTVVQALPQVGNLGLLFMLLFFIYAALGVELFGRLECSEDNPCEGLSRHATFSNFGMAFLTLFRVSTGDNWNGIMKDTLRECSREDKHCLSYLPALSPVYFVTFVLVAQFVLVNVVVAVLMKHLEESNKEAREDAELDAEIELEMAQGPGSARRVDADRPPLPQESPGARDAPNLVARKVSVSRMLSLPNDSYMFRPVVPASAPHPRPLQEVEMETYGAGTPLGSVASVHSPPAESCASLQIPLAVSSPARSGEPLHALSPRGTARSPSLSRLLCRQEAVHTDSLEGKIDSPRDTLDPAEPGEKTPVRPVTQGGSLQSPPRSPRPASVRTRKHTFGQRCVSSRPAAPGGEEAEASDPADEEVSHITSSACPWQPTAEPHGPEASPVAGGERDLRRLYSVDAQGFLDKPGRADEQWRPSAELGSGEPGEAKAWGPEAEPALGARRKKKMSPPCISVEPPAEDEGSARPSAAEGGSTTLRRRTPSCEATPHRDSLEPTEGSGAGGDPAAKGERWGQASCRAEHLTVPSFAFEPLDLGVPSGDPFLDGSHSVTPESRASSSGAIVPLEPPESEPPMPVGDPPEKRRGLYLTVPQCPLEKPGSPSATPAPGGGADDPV

[7] = cytotoxicity toward NIH3T3 fibroblasts, dose response, counter-screen, cell-based, ATP luminescence, mouse fibroblasts (AID 2010); format: functional;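 note: cells exposed to compound for about 90 hours before reading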
[8] = inhibitors of intracellular T. cruzi replication, confirmation, NIH3T3 host cells, beta-gal luminescence (AID 2044); format: functional, cell-based;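 note: intracellular parasites grown in NIH/3T3 mouse fibroblasts as host cells; luminescent beta-galactosidase reporter signal from transgenic T. cruzi replicating inside host cells; inhibitors lower the luminescence signal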
[9] = biological target: T3, Heat shock factor protein 1 (Mus musculus, UniProt P38532); test: HSF1 potentiators in luciferase reporter cells, confirmation, cell-based, NIH3T3, luminescence, dose retest (AID 435004); format: functional;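 note: stress induced by proteasome inhibitor MG132 added 30 min after compound; luciferase reporter driven by HSF1 response element in NIH3T3 cells; actives raise luminescence as potentiators of the MG132 stress response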
T3 sequence (P38532 whole entry): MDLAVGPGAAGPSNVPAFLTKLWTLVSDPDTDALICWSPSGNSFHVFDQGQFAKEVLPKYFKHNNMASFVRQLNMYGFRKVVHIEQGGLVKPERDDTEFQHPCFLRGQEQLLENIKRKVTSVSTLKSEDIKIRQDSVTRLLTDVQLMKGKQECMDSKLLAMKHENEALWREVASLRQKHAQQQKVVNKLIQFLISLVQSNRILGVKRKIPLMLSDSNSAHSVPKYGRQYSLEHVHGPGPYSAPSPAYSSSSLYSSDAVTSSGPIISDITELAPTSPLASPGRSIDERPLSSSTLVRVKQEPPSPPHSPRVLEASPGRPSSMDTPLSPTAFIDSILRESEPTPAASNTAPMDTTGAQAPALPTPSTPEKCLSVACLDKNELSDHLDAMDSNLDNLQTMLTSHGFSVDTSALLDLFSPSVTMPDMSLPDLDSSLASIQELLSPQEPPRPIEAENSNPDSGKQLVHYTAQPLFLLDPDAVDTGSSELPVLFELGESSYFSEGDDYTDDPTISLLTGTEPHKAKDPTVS

Beta-galactosidase = Beta-galactosidase (Escherichia coli, UniProt Q8VNN2); test: beta-galactosidase enzyme inhibitors and activators, dose response, artefact control for CCR6 antagonist project, biochemical, E. coli enzyme, set 3 (AID 504712); format: functional
[10] = biological target: Neurotensin receptor type 1 (Homo sapiens, UniProt P30989); format: functional;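 note: Image-based confirmatory dose-response assay measuring agonist activity at NTR1; NTR1-expressing U2OS osteosarcoma cells imaged for beta-arrestin GFP spot formation; agonist potency where compounds increase beta-arrestin recruitment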
[11] = tested on: Streptococcus sp. 'group A'; test: growth inhibition of control SK(-) GAS strain, dose response, counter-screen for streptokinase expression inhibitor project, luminescence, kanamycin, BacTiterGlo, confirmation (AID 1900); format: functional, organism-based
Streptococcus = test: Group A Streptococcus viability loss, dose response, counter-screen for streptokinase expression inhibitor project, luminescence, BacTiterGlo (AID 1915); format: functional, organism-based;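 note: potency for reduction of bacterial viability or growth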
[12] = cytotoxicity in HEK-293T cells, dose response, cytotoxicity control for TCR NF-kB inhibitor project, luminescence, T-cell screen hits (AID 489026); format: functional, cell-based;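 note: cells exposed to compound about 14 hours before the viability readout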
Streptokinase A = biological target: T4, Streptokinase A (Streptococcus pyogenes serotype M1, UniProt P10520); test: S. pyogenes streptokinase expression inhibitors, potency, dose response, plasminogen activation absorbance, OD405 (AID 1914); format: functional, Streptococcus pyogenes M1 GAS;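 note: secreted streptokinase activity via plasminogen activation per viability signal from cell pellet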
T4 sequence (P10520 whole entry): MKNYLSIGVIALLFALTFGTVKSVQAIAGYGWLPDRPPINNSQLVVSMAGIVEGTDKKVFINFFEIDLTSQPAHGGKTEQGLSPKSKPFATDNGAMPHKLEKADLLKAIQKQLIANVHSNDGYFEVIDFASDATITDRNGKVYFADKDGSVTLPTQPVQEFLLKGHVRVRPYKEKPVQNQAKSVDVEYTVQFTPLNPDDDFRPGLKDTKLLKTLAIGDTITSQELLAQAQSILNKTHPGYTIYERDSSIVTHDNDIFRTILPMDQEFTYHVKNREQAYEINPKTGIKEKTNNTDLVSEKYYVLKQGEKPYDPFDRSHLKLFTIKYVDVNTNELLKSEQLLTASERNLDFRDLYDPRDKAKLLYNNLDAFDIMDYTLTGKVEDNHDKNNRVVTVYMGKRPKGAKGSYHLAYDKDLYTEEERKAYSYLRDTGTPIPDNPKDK

Cytochrome P450 3A4 [13] = biological target: T2, Cytochrome P450 3A4; conditions: Potency
[14] = biological target: T5, Corticotropin-releasing factor receptor 2/Corticotropin-releasing factor-binding protein (Homo sapiens, UniProt P24387+Q13324); test: activators of CRF receptor 2 with binding protein – uHTS hits, confirmation (AID 602473); format: functional; conditions: read-out: EC50_Mean
T5 sequence (Q13324 whole entry): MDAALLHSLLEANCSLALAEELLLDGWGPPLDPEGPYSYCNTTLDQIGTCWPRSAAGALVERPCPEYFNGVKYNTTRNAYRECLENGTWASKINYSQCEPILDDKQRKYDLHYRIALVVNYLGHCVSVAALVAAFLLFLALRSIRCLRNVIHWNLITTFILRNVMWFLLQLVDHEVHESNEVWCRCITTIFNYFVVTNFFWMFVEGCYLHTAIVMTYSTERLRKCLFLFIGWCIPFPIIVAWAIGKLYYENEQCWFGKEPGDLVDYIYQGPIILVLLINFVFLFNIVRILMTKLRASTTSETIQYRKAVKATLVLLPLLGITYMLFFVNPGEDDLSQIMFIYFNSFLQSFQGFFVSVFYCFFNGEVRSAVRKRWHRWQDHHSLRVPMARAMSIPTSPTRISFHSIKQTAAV
T5 sequence (P24387 whole entry): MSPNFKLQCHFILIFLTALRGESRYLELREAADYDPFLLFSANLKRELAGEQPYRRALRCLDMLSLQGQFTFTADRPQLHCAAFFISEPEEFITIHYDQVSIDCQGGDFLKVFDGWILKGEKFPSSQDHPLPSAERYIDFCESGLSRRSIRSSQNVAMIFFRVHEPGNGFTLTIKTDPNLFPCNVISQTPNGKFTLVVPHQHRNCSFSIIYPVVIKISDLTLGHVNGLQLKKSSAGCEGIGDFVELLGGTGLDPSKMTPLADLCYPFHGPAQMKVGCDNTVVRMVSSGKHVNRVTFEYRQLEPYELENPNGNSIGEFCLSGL

[15] = biological target: T5, Corticotropin-releasing factor receptor 2/Corticotropin-releasing factor-binding protein; test: Dose Response confirmation of uHTS hits for small molecule antagonists of the CRF-binding protein and CRF-R2 receptor complex.; format: functional; conditions: read-out: IC50_Mean
[16] = biological target: NAD-dependent protein deacylase sirtuin-5, mitochondrial (Homo sapiens, UniProt Q9NXA8); test: SIRT5 desuccinylase inhibitors, dose response, biochemical, fluorescence imaging, cherry-pick, set 5 (AID 720591);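 note: desuccinylation of succinyl peptide AMC substrate read as fluorescence after trypsin release; potency of inhibitors that lower fluorescence and may act on trypsin instead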
Chain of NAD-dependent protein deacylase sirtuin-5, mitochondrial (Q9NXA8 whole entry): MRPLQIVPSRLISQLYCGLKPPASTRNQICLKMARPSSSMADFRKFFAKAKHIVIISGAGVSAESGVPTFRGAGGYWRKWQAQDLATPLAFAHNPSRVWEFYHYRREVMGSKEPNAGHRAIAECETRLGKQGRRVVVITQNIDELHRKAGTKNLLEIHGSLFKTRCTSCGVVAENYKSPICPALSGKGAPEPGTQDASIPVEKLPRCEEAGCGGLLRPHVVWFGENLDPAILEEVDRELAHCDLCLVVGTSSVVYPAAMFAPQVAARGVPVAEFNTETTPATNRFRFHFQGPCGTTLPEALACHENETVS

[17] = THP-1 cell cytotoxicity, dose response, cytotoxicity control for non-replicating M. tuberculosis project (AID 489025); format: functional
[18] = HepG2 cell cytotoxicity, dose response, cytotoxicity control for non-replicating M. tuberculosis project (AID 489018); format: functional; conditions: Mycobacterium tuberculosis

CN1CCN(c2ccc(C(=O)c3ccc(Br)cc3)cc2[N+](=O)[O-])CC1
EC50 (BJ [1]): > 150 µM (not active)
EC50 [2]: > 150 µM (not active)
EC50 (BJ [3]): > 150 µM (not active)
EC50 (BJ [4]): > 150 µM (not active)

O=C1C=CC(=O)N1c1ccc(Sc2ccc([N+](=O)[O-])cc2)cc1
EC50 (BJ [1]): > 75 µM (inconclusive)
EC50 [2]: 24.7 µM (active)
EC50 (BJ [3]): 21 µM (active)
EC50 (BJ [4]): 7.87 µM (active)

COc1cc(C)nc(N(Cc2ccccc2)S(=O)(=O)c2ccc(C)cc2)n1
EC50 (Ion channel NompC): > 29.9 µM (not active)
EC50 (Mucolipin-3): 6.93 µM (active)

C=CCN(CC=C)CC(O)Cn1c2ccccc2c2ccccc21 (stereo unspecified)
AC50 (INS1): > 120 µM (inactive)
AC50 (Cytochrome P450 3A4 [5]): 28.2 µM (inconclusive)
EC50 [6]: 9.06 µM (active)

Cc1nc2c(Cl)cccc2c(O)c1CN1CCCCCC1
EC50 [7]: > 60 µM (not active)
EC50 (cells): 0.046 µM (active)
EC50 [8]: < 0.1 µM (active)

CCc1ccccc1NC(=O)c1cc2sccc2n1C
EC50 [6]: 12 µM (active)

CCOC(=O)c1c(N2C(=O)C=CC2=O)sc(C)c1C
EC50 [9]: 4.22 µM (active)
IC50 (Beta-galactosidase): > 66.6 µM (inactive)

C=CCOc1ccc2c(c1)c(S(=O)(=O)c1ccc(C)cc1)cn2COC
EC50 (Ion channel NompC): > 29.9 µM (not active)
EC50 (Mucolipin-3): 1.16 µM (active)

CCOc1cc(/C=C2/C(=O)ON=C2C)ccc1OCc1ccccc1
EC50 [10]: 23 µM (inactive)

COC(=O)c1cnc(Oc2ccc(NC(=O)NC(=O)c3c(F)cccc3Cl)cc2)cc1C(F)(F)F
EC50 [11]: 49 µM (active)
EC50 (BJ [1]): 19.9 µM (active)
EC50 [2]: 3.69 µM (inconclusive)
EC50 (Streptococcus): > 150 µM (not active)
IC50 [12]: > 80 µM (inactive)
EC50 (Streptokinase A): 1.95 µM (active)
EC50 (BJ [3]): 36.1 µM (inconclusive)
EC50 (BJ [4]): 1.08 µM (active)

CC1CC(C)CN(CCOCCSc2ccccc2)C1 (stereo unspecified)
EC50 [7]: > 60 µM (inconclusive)
EC50 (cells): 0.09 µM (active)
EC50 [8]: < 0.1 µM (active)

Cc1ccc(S(=O)(=O)N(C)CC(=O)ONC(=N)c2cccc([N+](=O)[O-])c2)cc1
EC50 (Ion channel NompC): > 29.9 µM (not active)
EC50 (Mucolipin-3): 12.1 µM (not active)

CNC(=O)[C@H](C)/C=C(\c1cccnc1)C(NC(=O)OCc1ccccc1)c1ccc(C(=O)OC)cc1 (stereo partly specified)
AC50 (Cytochrome P450 3A4 [13]): 20 µM (inconclusive)

CCN(CC)CCN(C(=O)CN1C(=O)c2ccccc2C1=O)c1nc2cc3c(cc2s1)OCO3
EC50 [7]: > 60 µM (not active)
EC50 [14]: > 53 µM (inactive)
EC50 (cells): 0.349 µM (active)
IC50 [15]: > 47.1 µM (inactive)
EC50 [8]: < 0.1 µM (active)

CC(=O)c1ccc(OC(=O)Cc2cccc3ccccc23)cc1
AC50 [16]: 10.4 µM (active)

Cc1ccc2c(c1)C(O)(c1c(C)[nH]c3ccccc13)C(=O)N2 (stereo unspecified)
EC50 [6]: 8.82 µM (active)

Cc1cc(Br)ccc1OCCCCN1CCCCC1
CC50 [17]: > 40 µM (active)
EC50 [7]: > 60 µM (not active)
EC50 [8]: 0.75 µM (active)
CC50 [18]: > 20 µM (active)

COc1c2c(cc3c1OCO3)C13C=CC(OC)CC1N(C2)CC3O (stereo unspecified)
AC50 (Cytochrome P450 3A4 [13]): 39.8 µM (inconclusive)

C=C1C(=O)OC2C1CC/C(C)=C/CCC1(C)OC21 (stereo unspecified)
AC50 (Cytochrome P450 3A4 [13]): 25.1 µM (inconclusive)

Cc1cccc(-n2c(SCC(N)=O)nnc2-c2ccco2)c1
AC50 [16]: > 30 µM (inactive)

COc1cc(C(=O)NNC(=O)C2CCC2)cc(OC)c1OC
AC50 [16]: 29.9 µM (active)

Cc1cc(CNC(=O)Cc2c(F)cccc2Cl)nn1C
AC50 [16]: > 30 µM (inactive)

C[C@H](NC(=O)c1[nH]cnc1C(=O)NCc1ccc(CNC(=O)OC(C)(C)C)cc1)C(=O)OCc1ccccc1
EC50 [10]: 19.4 µM (active)

O=C(N/N=C/c1ccc([N+](=O)[O-])o1)c1cn(-c2ccccc2)nc1-c1ccc(Cl)cc1
EC50 [7]: > 30 µM (not active)
EC50 (cells): 0.028 µM (active)
EC50 [8]: < 0.1 µM (active)
